The target in one assay is T1, hPKG Iβ 1–351 G306E (Homo sapiens, UniProt Q13976, G291E).
T1 sequence (Q13976 1-351 isoform Q13976-2 G306E): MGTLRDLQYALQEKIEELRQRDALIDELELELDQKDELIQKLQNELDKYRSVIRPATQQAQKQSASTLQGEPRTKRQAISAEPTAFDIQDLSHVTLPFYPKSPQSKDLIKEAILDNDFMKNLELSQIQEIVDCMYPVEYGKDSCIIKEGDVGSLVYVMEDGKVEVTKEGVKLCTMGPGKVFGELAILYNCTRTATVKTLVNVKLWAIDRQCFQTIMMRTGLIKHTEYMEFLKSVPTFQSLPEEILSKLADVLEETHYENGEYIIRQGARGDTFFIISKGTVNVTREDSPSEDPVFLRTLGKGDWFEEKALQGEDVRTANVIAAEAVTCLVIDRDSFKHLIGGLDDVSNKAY
As to the kind of experiment: Competitive SPR, PKG Iβ R domain with site B disabled. Type of assay: binding. Conditions: own affinity data.

The target of a further assay is T2, hPKG II 41–418 wt (Homo sapiens, UniProt Q13237).
T2 sequence (Q13237 41-418): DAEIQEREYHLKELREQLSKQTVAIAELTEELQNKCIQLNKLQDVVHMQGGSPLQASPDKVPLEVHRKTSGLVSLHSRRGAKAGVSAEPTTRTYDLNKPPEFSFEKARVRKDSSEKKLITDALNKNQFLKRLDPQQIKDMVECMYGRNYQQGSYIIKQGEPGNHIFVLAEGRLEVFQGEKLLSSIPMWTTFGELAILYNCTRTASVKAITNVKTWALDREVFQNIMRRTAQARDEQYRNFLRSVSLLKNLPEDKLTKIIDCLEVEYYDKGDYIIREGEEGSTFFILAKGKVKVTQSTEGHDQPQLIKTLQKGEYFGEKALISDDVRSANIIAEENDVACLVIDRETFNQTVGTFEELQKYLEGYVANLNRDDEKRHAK
As to the kind of experiment: Competitive SPR. The note with it: for Isotype selectivity in binding, PKG II: selective in binding PKG II. Type of assay: binding.

The next assay relates to PKG II. The note with it: read-out: Activation constant (previous activation data); cited from earlier work.
The test system of the next assay is PKG I. The note with it: PKG I preincubated with [3H]cGMP, cited from earlier work.
The next assay addresses T3, hPKG Iβ 5–676 (Homo sapiens, UniProt Q13976).
T3 sequence (Q13976 5-686 isoform Q13976-2): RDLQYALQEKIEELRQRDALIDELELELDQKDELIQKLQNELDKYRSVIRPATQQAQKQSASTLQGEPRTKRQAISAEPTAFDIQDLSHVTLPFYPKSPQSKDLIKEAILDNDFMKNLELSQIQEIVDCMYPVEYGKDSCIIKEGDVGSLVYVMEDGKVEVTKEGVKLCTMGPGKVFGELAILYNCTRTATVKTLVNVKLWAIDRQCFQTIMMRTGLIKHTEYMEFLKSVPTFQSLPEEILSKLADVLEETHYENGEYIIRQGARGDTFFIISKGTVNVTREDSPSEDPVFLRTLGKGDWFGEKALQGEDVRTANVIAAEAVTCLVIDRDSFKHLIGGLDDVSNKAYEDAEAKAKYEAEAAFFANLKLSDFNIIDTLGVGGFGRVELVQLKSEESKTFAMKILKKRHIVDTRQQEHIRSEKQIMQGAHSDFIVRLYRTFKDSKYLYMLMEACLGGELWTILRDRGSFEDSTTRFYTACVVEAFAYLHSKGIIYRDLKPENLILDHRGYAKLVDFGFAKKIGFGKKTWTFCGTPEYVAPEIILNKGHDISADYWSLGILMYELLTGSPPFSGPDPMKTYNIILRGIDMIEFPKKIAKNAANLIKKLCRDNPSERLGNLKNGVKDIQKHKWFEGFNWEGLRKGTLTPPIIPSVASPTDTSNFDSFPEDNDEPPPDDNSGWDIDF
The experiment in a line: Microfluidic mobility-shift kinase activation assay, PKG Iβ. Conditions: for Activation constant Ka ± SEM: full-length PKG Iβ, microfluidic mobility shift assay.

A further assay deals with T4, hPKG II 1–762 (Homo sapiens, UniProt Q13237).
T4 sequence (Q13237 1-762): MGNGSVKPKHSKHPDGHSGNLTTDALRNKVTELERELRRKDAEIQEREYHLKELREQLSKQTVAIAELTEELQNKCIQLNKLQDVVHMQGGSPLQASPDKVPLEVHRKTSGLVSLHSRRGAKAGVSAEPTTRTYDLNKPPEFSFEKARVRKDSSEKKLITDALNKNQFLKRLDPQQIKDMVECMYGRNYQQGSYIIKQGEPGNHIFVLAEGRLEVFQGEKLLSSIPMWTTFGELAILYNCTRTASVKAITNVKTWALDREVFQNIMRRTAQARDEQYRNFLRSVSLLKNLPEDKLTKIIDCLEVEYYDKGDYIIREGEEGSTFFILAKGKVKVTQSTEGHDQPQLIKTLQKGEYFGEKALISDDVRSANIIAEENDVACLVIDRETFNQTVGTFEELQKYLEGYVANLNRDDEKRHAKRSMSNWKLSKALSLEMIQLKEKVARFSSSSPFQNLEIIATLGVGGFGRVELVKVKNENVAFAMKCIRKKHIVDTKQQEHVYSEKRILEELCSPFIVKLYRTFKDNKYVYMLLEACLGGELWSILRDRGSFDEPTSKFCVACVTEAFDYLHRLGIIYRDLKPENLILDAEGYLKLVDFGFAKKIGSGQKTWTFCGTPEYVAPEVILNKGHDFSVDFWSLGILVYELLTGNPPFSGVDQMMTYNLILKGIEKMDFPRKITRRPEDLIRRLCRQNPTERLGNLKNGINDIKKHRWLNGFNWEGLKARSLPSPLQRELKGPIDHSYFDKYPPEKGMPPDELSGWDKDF
The experiment in a line: Microfluidic mobility-shift kinase activation assay, PKG II. The note with it: for Isotype selectivity in activating, PKG II: selective in activating PKG II; for Activation constant Ka ± SEM: full-length PKG II, microfluidic mobility shift assay.

The next assay deals with T5, hPKG II 41–418 G356E (Homo sapiens, UniProt Q13237, G356E).
T5 sequence (Q13237 41-418 G356E): T2 sequence (Q13237 41-418) with G316E
As to the kind of experiment: Competitive SPR, PKG II R domain with site B disabled. Type of assay: binding.

A further assay relates to PKG Iβ. The note with it: read-out: Activation constant (previous activation data); cited from earlier work.
The target of a further assay is T6, hPKG Iβ 1–351 G182E (Homo sapiens, UniProt Q13976, G167E).
T6 sequence (Q13976 1-351 isoform Q13976-2 G182E): T1 sequence (Q13976 1-351 isoform Q13976-2 G306E) with G182E, E306G
The experiment in a line: Competitive SPR, PKG Iβ R domain with site A disabled. Type of assay: binding. The note with it: own affinity data.

The target of a further assay is T7, hPKG Iβ 1–351 wt (Homo sapiens, UniProt Q13976).
T7 sequence (Q13976 1-351 isoform Q13976-2): T1 sequence (Q13976 1-351 isoform Q13976-2 G306E) with E306G
As to the kind of experiment: Competitive SPR.

Consider 4 compounds from paper PMC5896746 (ACS chemical biology, 2017).

Changes are numbered by the printed parent chain.

Take `Nc1nc2c(nc(Br)n2[C@@H]2O[C@@H]3COP(=O)(O)O[C@H]3[C@H]2O)c(=O)[nH]1` [8-Br-cGMP, 8-bromoguanosine 3′,5′-cyclic monophosphate]: at hPKG Iβ 1–351 G306E, the “Binding to A site, fold stronger than cGMP” value was “over 2 fold”. Also, the “Isotype selectivity in binding, PKG II” value at hPKG II 41–418 wt was ~ 10 fold. For the same compound, the EC50 in the assay on PKG II was 0.025 µM. Moreover, the “Binding to slowly exchanging site (A site), fold stronger than cGMP” value in the assay on PKG I is on record as 3.4 fold. Moreover, the “Activation constant Ka ± SEM” value at hPKG Iβ 5–676 is given as 206 ± 13 nM (3). For the same compound, the “Isotype selectivity in activating, PKG II” value at hPKG II 1–762 is reported as ~ 4 fold.

Take `Nc1nc2c(nc(Sc3ccc(Cl)cc3)n2[C@@H]2O[C@@H]3COP(=O)(O)O[C@H]3[C@H]2O)c(=O)[nH]1` [8-pCPT-cGMP, 8-(4-chlorophenylthio)guanosine-3′-5′-cyclic monophosphate]: the “Isotype selectivity in binding, PKG II” value on hPKG II 41–418 wt is reported as 40–50 fold. The “Selectivity for PKG II (EC50 compared to cGMP)” value on hPKG II 41–418 wt (wild type R domain, SPR) is ~ 19 fold. For the same compound, the “Reduction of EC50 at A site of PKG II compared to cGMP” value at hPKG II 41–418 G356E is above 50 fold. The EC50 in the assay on PKG Iβ was 0.44 µM. The “Activation constant Ka ± SEM” value on hPKG Iβ 5–676 was 249 ± 17 nM (3); at hPKG II 1–762, 22 ± 3 nM (4). Also, the “Isotype selectivity in activating, PKG II” value on hPKG II 1–762 is given as ~ 10 fold.

Turning to `O=c1c2ncn([C@@H]3O[C@@H]4COP(=O)(O)O[C@H]4[C@H]3O)c2nc2[nH]c(-c3ccccc3)cn12` [PET-cGMP, β-phenyl-1,N2-ethenoguanosine 3′,5′-monophosphate], the “Binding to B site, fold stronger than cGMP” value at hPKG Iβ 1–351 G182E is on record as “over 50 fold”; in the assay with PKG I (rapidly exchanging site), 10 fold. Further, the EC50 with PKG Iβ is 0.02 µM. Also, the “Activation constant Ka ± SEM” value is reported as 18 ± 2 nM (3) at hPKG Iβ 5–676 and 225 ± 13 nM (3) at hPKG II 1–762. In addition, the “Isotype selectivity in activating, PKG Iβ” value on hPKG Iβ 5–676 (selective in activating PKG Iβ) is given as ~ 10 fold. On hPKG Iβ 1–351 wt (selective in binding PKG Iβ), the “Isotype selectivity in binding, PKG Iβ” value was 40–50 fold. On hPKG Iβ 1–351 wt (wild type R domain, SPR), the “Selectivity for PKG Iβ (EC50 compared to cGMP)” value is given as ~ 40 fold.

As for `Nc1nc2c(ncn2[C@@H]2O[C@@H]3COP(=O)(O)O[C@H]3[C@H]2O)c(=O)[nH]1` [cGMP, Cyclic GMP], the figures for the EC50 with PKG Iβ and in the assay on PKG II were 0.25 µM and 0.04 to 0.36 µM, respectively.
